In the supplement of paper PMC10307832:

Key:
Assay in all cases: relative viability (nuclei count vs DMSO), 5 days (fraction); higher = more cells survive
Etoposide + Navitoclax = compound: COc1cc([C@@H]2c3cc4c(cc3[C@@H](O[C@@H]3O[C@@H]5CO[C@@H](C)O[C@H]5[C@H](O)[C@H]3O)[C@H]3COC(=O)[C@H]23)OCO4)cc(OC)c1O [Etoposide] + CC1(C)CCC(c2ccc(Cl)cc2)=C(CN2CCN(c3ccc(C(=O)NS(=O)(=O)c4ccc(N[C@H](CCN5CCOCC5)CSc5ccccc5)c(S(=O)(=O)C(F)(F)F)c4)cc3)CC2)C1 [Navitoclax] (partner 0.5 µM)
Outline: (§1)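 Lung cancer cell lines were seeded in 1536-well plates and dosed by pin tool the next day, with either a single drug or a fixed anchor-drug dose combined with five library-drug doses (not always all listed) spaced in √10 steps. Five days later, one step fixed the cells and stained their nuclei (final 0.05% Triton X-100, 1% formaldehyde, 1 ug/ml Hoechst), and nuclei were counted on 4× images. Relative viability is the nuclei count in treated wells divided by the count in vehicle wells, and each value is the median of duplicate plates.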

Etoposide + Crizotinib = compound: COc1cc([C@@H]2c3cc4c(cc3[C@@H](O[C@@H]3O[C@@H]5CO[C@@H](C)O[C@H]5[C@H](O)[C@H]3O)[C@H]3COC(=O)[C@H]23)OCO4)cc(OC)c1O [Etoposide] + C[C@@H](Oc1cc(-c2cnn(C3CCNCC3)c2)cnc1N)c1c(Cl)ccc(F)c1Cl [Crizotinib] (partner 1 µM)
Outline: as §1

Bleomycin + Tozasertib = compound: CC1=C(N=C(N=C1N)[C@H](CC(=O)N)NC[C@@H](C(=O)N)N)C(=O)N[C@@H]([C@H](C2=CN=CN2)OC3C(C(C(C(O3)CO)O)O)OC4C(C(C(C(O4)CO)O)OC(=O)N)O)C(=O)N[C@H](C)[C@H]([C@H](C)C(=O)N[C@@H]([C@@H](C)O)C(=O)NCCC5=NC(=CS5)C6=NC(=CS6)C(=O)NCCC[S+](C)C)O [Bleomycin] + Cc1cc(Nc2cc(N3CCN(C)CC3)nc(Sc3ccc(NC(=O)C4CC4)cc3)n2)n[nH]1 [Tozasertib] (partner 0.1 µM); settings: main component drawn
Outline: as §1

Etoposide + Pemetrexed = compound: COc1cc([C@@H]2c3cc4c(cc3[C@@H](O[C@@H]3O[C@@H]5CO[C@@H](C)O[C@H]5[C@H](O)[C@H]3O)[C@H]3COC(=O)[C@H]23)OCO4)cc(OC)c1O [Etoposide] + Nc1nc2[nH]cc(CCc3ccc(C(=O)N[C@@H](CCC(=O)O)C(=O)O)cc3)c2c(=O)[nH]1 [Pemetrexed] (partner 0.2 µM)
Outline: as §1

Cell Line	relative viability (Etoposide + Navitoclax; first compound 0.01 µM)	relative viability (Etoposide + Navitoclax; first compound 0.03162 µM)	relative viability (Etoposide + Navitoclax; first compound 0.1 µM)	relative viability (Etoposide + Navitoclax; first compound 0.3162 µM)	relative viability (Etoposide + Navitoclax; first compound 1 µM)	relative viability (Etoposide + Crizotinib; first compound 0.01 µM)	relative viability (Etoposide + Crizotinib; first compound 0.03162 µM)	relative viability (Etoposide + Crizotinib; first compound 0.1 µM)	relative viability (Etoposide + Crizotinib; first compound 0.3162 µM)	relative viability (Etoposide + Crizotinib; first compound 1 µM)	relative viability (Bleomycin + Tozasertib; first compound 0.01 µM)	relative viability (Bleomycin + Tozasertib; first compound 0.03162 µM)	relative viability (Bleomycin + Tozasertib; first compound 0.1 µM)	relative viability (Bleomycin + Tozasertib; first compound 0.3162 µM)	relative viability (Bleomycin + Tozasertib; first compound 1 µM)	relative viability (Etoposide + Pemetrexed; first compound 0.01 µM)	relative viability (Etoposide + Pemetrexed; first compound 0.03162 µM)	relative viability (Etoposide + Pemetrexed; first compound 0.1 µM)	relative viability (Etoposide + Pemetrexed; first compound 0.3162 µM)	relative viability (Etoposide + Pemetrexed; first compound 1 µM)
PC-14	0.984	1.05	1.19	0.906	0.652	0.957	0.896	0.951	0.728	0.59	0.335	0.275	0.145	0.0771	0.05	0.13	0.141	0.168	0.121	0.106
A-427	0.963	0.937	0.525	0.53	0.256	0.875	0.837	0.717	0.263	0.153	0.201	0.168	0.223	0.126	0.159	0.999	1.06	0.778	0.607	0.305
LCLC-97TM1	–	0.62	0.327	0.178	0.141	–	0.382	0.241	0.155	0.111	0.176	0.217	0.218	0.158	0.195	0.176	0.196	0.168	0.18	0.118
RERF-LC-KJ	0.829	0.94	0.957	0.829	0.488	0.885	0.798	0.773	0.685	0.46	0.311	0.339	0.297	0.234	0.193	0.454	0.507	0.48	0.434	0.445
BEN	0.0656	0.0585	–	0.057	0.0632	0.701	0.827	–	0.828	0.693	0.487	0.519	0.452	0.431	0.475	0.87	1.05	–	0.727	0.669
NCI-H1666	0.788	0.875	0.549	0.353	0.263	0.906	0.904	0.68	0.36	0.301	0.4	0.462	0.458	0.391	0.344	0.832	0.866	0.923	0.631	0.563
LC-2-ad	0.586	0.446	0.405	0.276	0.183	0.568	0.45	0.434	0.332	0.203	0.395	0.354	0.34	0.247	0.276	0.277	0.279	0.298	0.277	0.28
SW 1573	0.926	0.946	0.639	0.209	0.0658	0.634	0.618	0.595	0.29	0.198	0.141	0.184	0.17	0.129	0.161	0.877	0.785	0.397	0.259	0.148
ChaGo-K-1	1.11	0.956	0.755	0.391	0.274	1.08	0.888	0.576	0.306	0.304	0.221	0.214	0.23	0.164	0.192	0.267	0.261	0.259	0.261	0.218
COR-L 105	0.745	0.802	0.79	0.516	0.586	0.675	0.51	0.709	0.644	0.543	0.31	0.337	0.33	0.325	0.279	1.03	1.02	1.27	0.836	0.844
NCI-H1975	1.09	1.33	1.06	0.701	0.468	0.98	1.06	1.05	0.668	0.249	0.485	0.466	0.42	0.152	0.0955	0.285	0.303	0.31	0.268	0.223
NCI-H1993	0.921	1.08	0.856	0.758	0.533	0.758	0.856	0.734	0.712	0.473	0.505	0.501	0.551	0.575	0.539	–	0.662	0.502	0.543	0.399
SK-LU-1	0.633	0.975	0.468	0.144	0.166	0.778	0.902	0.614	0.387	0.327	0.295	0.35	0.363	0.235	0.215	0.991	0.863	0.817	0.363	0.282
NCI-H2347	0.809	0.626	0.405	0.354	0.28	0.677	0.455	0.408	0.384	0.339	0.451	0.44	0.52	0.221	0.413	0.454	0.487	0.401	0.386	0.383
HCC-366	0.923	1.05	0.864	0.306	0.0332	0.43	0.434	0.217	0.0627	0.0226	0.0825	0.11	0.0755	0.0502	0.0319	0.174	0.182	0.272	0.157	0.0669
